The record followed here is US9309224B2 (Deciphera Pharmaceuticals, LLC, priority 2013, dated 2016).

Assay [1] concerns the target T1, unphosphorylated c-FMS kinase (uFMS, Seq. ID no. 1) (Homo sapiens, UniProt P07333).
T1 construct: purchased Millipore
T1 sequence (P07333 538-972): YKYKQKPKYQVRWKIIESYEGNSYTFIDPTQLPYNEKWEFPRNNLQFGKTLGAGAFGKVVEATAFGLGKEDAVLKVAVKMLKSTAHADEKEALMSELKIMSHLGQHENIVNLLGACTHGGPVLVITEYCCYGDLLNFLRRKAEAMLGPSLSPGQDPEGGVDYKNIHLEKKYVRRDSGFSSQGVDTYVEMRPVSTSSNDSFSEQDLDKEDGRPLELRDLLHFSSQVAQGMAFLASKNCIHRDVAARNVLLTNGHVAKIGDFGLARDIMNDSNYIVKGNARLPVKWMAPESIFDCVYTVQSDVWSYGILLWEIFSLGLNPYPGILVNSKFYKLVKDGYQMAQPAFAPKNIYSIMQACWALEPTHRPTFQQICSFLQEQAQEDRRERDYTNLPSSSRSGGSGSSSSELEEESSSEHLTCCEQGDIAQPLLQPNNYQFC
Put plainly: uFMS kinase assay (pyruvate kinase/lactate dehydrogenase coupled). The note with it: ATP 500 μM. The assay is classed as biochemical.
Description: In this assay, the oxidation of NADH (thus the decrease at A340 nm) was continuously monitored spectrophometrically. The reaction mixture (100 μL) contained FMS (purchased from Millipore) (10 nM), polyE4Y (1 mg/mL), MgCl2 (10 mM), pyruvate kinase (4 units), lactate dehydrogenase (0.7 units), phosphoenol pyruvate (1 mM), NADH (0.28 mM) and ATP (500 μM) in 90 mM Tris buffer containing 0.2% octyl-glucoside and 1% DMSO, pH 7.5. The inhibition reaction was started by mixing serial diluted test compound with the above reaction mixture. The absorption at 340 nm was monitored continuously for 4 hours at 30° C. on Synergy 2 plate reader. The reaction rate was calculated using the 3 to 4 h time frame. Percent inhibition was obtained by comparison of reaction rate with that of a control (i.e. in the absence of test compound). IC50 values were calculated from a series of percent inhibition values determined at a range of inhibitor concentrations using software routines as implemented in the GraphPad Prism software package.

The target in assay [2] is T2, unphosphorylated c-KIT kinase (uKIT, Seq. ID no. 2) (Homo sapiens, UniProt P10721).
T2 construct: uKit with N-terminal GST fusion used for
Nature of the assay: uKit kinase assay (pyruvate kinase/lactate dehydrogenase coupled). The assay is classed as biochemical. Particulars: ATP 2000 μM.
Description: In this assay, the oxidation of NADH (thus the decrease at A340 nm) was continuously monitored spectrophometrically. […] The inhibition reaction was started by mixing serial diluted test compound with the above reaction mixture. The absorption at 340 nm was monitored continuously for 4 hours at 30° C. on Synergy 2 plate reader (BioTech).

In assay [3] the target is T3, unphosphorylated PDGFRβ kinase (uPDGFRβ, Seq. ID No. 3) (Homo sapiens, UniProt P09619).
T3 construct: purchased DeCode
Put plainly: Unphosphorylated PDGFRβ kinase assay (pyruvate kinase/lactate dehydrogenase coupled). The note with it: ATP 500 μM. The class given is biochemical. An excerpt: Unphosyhorylated PDGFRβ (uPDGFRβkinase (Seq. ID No. 3) assay

In a further assay the test system is M-NFS-60 cells. Nature of the assay: M-NFS-60 cell proliferation assay. Particulars: 67 h incubation, resazurin. The class given is cell-based.
Another assay relates to osteoclast precursors. Put plainly: Osteoclast tartrate-resistant acid phosphatase assay. The assay is classed as cell-based. Particulars: Osteoclast; 7-14 days, RANKL and M-CSF.
Assay [4] deals with T4, phospho-FMS in THP-1 cells (Homo sapiens, UniProt P07333).
T4 construct: endogenous in cells; host or cells: THP-1 (ATCC TIB-202)
Put plainly: Phospho-FMS ELISA assay in THP-1 cells. The class given is cell-based. The note with it: 4 hours compound, M-CSF stimulated; read-out: pFMS inhibition in THP-1 cells. (ELISA stands for enzyme-linked immunosorbent assay.)
Description: In a separate 96 well black clear bottom plate, one hundred and fifty thousand THP-1 cells were added per well in 100 μL in assay medium. Fifty microliters of diluted compound was then added to the cells. […] Lysates were prepared and used to perform the phospho-FMS ELISA as described by the manufacturer (catalog #DYC3268, R & D Systems, Minneapolis, Minn.). GraphPad Prism was used to calculate IC50 values obtained from data generated from the ELISA assay.

The next assay deals with c-FMS. Nature of the assay: cFOS mRNA production in a c-FMS mouse spleen pharmacodynamic model. The assay is classed as in vivo. Particulars: out to 8 h post 30 mg/kg single oral dose, read-out: inhibition of cFOS mRNA levels. How it is done: Analysis of cFOS mRNA Production in a c-FMS Mouse Spleen Pharmacodynamic Model To examine the in vivo modulation of FMS activity by compounds of formula I, spleen samples from female DBA/1 mice were collected and analyzed for M-CSF stimulated production of cFOS mRNA. Briefly, six to seven week old female Taconic DBA/1BO J Bom Tac mice were treated with a single oral dose (by gavage) of either vehicle or compound. Plasma and spleen samples are collected from four mice at each timepoint 2, 4, 6, 8, 12, 18, and 24 hours after dosing. Fifteen minutes prior to euthanasia, all mice were injected IV with 1 μg (100 μL fixed volume) of M-CSF. M-CSF, Recombinant Mouse Macrophage Colony Stimulating Factor (36.4 kDa homodimer, ≧98% purity) was obtained from Gibco. All procedures carried out in this experiment were conducted in compliance with all the laws, regulations and guidelines of the National Institutes of Health (NIH). cFOS mRNA levels in spleen extracts were determined using a quantitative reverse transcriptase PCR kit from Life Technologies. Plasma levels of FMS inhibitors were determined by mass spectrometer analysis. The degree of FMS inhibition was correlative to the amount of decrease observed in cFOS mRNA levels in the spleen samples of treated animals compared to vehicle.

Structures are written as SMILES. pIC50: −log10 of the molar value.

T3 sequence (P09619 557-1105): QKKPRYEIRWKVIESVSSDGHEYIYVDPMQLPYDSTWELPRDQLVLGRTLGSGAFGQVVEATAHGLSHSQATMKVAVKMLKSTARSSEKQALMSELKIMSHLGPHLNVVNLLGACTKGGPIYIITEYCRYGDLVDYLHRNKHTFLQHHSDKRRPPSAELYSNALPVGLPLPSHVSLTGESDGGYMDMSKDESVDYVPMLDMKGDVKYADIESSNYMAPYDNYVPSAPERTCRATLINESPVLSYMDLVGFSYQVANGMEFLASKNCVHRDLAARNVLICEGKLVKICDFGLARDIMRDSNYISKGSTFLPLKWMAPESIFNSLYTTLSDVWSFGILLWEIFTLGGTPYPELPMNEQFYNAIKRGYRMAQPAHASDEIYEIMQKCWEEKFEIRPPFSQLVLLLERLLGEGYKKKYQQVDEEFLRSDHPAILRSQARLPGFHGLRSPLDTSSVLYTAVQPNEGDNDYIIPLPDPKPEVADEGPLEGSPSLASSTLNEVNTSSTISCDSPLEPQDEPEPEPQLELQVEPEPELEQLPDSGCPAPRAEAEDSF
T4 sequence (P07333 20-972): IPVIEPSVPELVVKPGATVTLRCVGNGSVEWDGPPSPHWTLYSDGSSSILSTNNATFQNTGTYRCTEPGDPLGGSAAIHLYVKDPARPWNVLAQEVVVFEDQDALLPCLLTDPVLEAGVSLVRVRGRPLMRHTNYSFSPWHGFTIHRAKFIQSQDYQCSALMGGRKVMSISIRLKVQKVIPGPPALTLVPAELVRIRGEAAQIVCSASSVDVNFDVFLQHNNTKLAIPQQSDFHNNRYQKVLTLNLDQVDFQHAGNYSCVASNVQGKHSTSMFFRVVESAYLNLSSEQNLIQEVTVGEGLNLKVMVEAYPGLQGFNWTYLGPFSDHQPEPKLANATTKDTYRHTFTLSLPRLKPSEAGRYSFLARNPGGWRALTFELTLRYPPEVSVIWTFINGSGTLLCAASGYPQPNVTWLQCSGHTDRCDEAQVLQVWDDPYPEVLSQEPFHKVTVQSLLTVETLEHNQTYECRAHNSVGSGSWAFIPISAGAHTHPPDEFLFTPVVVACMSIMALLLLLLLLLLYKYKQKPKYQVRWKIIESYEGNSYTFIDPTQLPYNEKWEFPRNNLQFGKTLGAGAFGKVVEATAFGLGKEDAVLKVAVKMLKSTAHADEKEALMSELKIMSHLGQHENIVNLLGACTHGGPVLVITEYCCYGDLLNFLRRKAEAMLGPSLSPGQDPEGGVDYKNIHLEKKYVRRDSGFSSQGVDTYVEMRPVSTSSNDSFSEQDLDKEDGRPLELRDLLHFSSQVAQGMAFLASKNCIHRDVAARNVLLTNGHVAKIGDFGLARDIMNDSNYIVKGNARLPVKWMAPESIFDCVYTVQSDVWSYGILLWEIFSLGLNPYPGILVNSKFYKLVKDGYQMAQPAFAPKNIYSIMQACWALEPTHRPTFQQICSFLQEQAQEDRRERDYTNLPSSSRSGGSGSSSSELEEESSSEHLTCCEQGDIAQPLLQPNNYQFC
T2 sequence (P10721 with tags, fused parts or gaps): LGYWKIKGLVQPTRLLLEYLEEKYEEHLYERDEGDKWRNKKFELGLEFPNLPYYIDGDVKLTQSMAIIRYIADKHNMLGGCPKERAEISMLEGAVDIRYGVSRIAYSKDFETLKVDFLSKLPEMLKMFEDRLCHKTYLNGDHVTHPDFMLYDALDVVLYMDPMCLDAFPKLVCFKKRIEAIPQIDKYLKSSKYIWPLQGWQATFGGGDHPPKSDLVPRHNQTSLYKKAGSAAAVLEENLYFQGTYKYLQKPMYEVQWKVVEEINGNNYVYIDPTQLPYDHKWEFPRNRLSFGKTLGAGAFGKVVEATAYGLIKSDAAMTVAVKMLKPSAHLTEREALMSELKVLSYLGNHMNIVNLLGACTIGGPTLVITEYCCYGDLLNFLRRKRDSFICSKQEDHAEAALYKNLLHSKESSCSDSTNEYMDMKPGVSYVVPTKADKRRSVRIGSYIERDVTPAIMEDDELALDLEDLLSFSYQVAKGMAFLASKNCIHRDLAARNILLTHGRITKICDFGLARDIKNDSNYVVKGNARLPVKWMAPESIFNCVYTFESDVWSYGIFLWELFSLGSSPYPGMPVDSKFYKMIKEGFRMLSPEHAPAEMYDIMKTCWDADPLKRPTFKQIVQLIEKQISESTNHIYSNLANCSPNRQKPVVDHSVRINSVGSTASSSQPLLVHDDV
Description for M-NFS-60 cells: M-NFS-60 Cell Proliferation Assay A serial dilution of test compound was dispensed into a 384-well black clear bottom plate (Corning, Corning, N.Y.). Two thousand five hundred cells were added per well in 50 μL complete growth medium. […] IC50 values were calculated from a series of percent inhibition values determined at a range of inhibitor concentrations using software routines as implemented in the GraphPad Prism software package.

`CN1CCC(C(=O)Nc2cc(Oc3ccc(NC(=O)NC(=O)C(C)(C)C)nc3)ccn2)CC1` [Example 21, 1-methyl-N-(4-((6-(3-pivaloylureido)pyridin-3-yl)oxy)pyridin-2-yl)piperidine-4-carboxamide]: the pIC50 is greater than 8.00 in assay [1]; less than 6.00 in assay [2]; less than 6.00 in assay [3]; 7.00 to 8.00 with M-NFS-60 cells; greater than 8.00 with osteoclast precursors; 7.00 to 8.00 in assay [4]. Besides, the inhibition in vivo at 30 mg/kg with c-FMS was no less than 50%.

`COC(C)(C)C(=O)NC(=O)Nc1ccc(Oc2ccnc(NC(C)=O)c2)cn1` [Example 26, N-((5-((2-acetamidopyridin-4-yl)oxy)pyridin-2-yl)carbamoyl)-2-methoxy-2-methylpropanamide]: the pIC50 in assay [1] is greater than 8.00; in assay [2] it was less than 6.00; in assay [3], 6.00 to 7.00; in the assay with M-NFS-60 cells, 7.00 to 8.00; in the assay with osteoclast precursors, greater than 8.00; in assay [4], greater than 8.00. Also, the inhibition in vivo at 30 mg/kg with c-FMS was no less than 50%.

As to `CC(C)(C)C(=O)NC(=O)Nc1ccc(Oc2ccnc(NC(=O)N3CCNCC3)c2)cn1` [Example 83, N-(4-((6-(3-pivaloylureido)pyridin-3-yl)oxy)pyridin-2-yl)piperazine-1-carboxamide], the pIC50 in assay [1] is greater than 8.00; in assay [2] it was less than 6.00; in assay [3], 6.00 to 7.00; in the assay with M-NFS-60 cells it was 7.00 to 8.00; with osteoclast precursors, greater than 8.00; in assay [4], greater than 8.00. Moreover, the inhibition in vivo at 30 mg/kg with c-FMS was no less than 50%.

`Cc1nc(NC(=O)NC(=O)C(C)(C)C)ccc1Oc1ccnc(NC(=O)C2CC2)c1` [Example 11, N-(4-((2-methyl-6-(3-pivaloylureido)pyridin-3-yl)oxy)pyridin-2-yl)cyclopropanecarboxamide]: the pIC50 in assay [1] is greater than 8.00; in assay [2], less than 6.00; in assay [3] it was 7.00 to 8.00; in the assay with M-NFS-60 cells, greater than 8.00; with osteoclast precursors it was greater than 8.00; in assay [4], greater than 8.00. Also, the inhibition in vivo at 30 mg/kg with c-FMS is no less than 50%.

In the case of `COC(C)(C)C(=O)NC(=O)Nc1ccc(Oc2ccnc(NC(=O)C3CC3)c2)cn1` [Example 31, N-(4-((6-(3-(2-methoxy-2-methylpropanoyl)ureido)pyridin-3-yl)oxy)pyridin-2-yl)cyclopropanecarboxamide], the pIC50 in assay [1] is greater than 8.00; in assay [2], 6.00 to 7.00; in assay [3], 6.00 to 7.00; with M-NFS-60 cells, 7.00 to 8.00; in the assay with osteoclast precursors it was greater than 8.00; in assay [4] it was greater than 8.00.

In the case of `CC(C)(C)C(=O)NC(=O)Nc1ccc(Oc2ccnc(NC(=O)N3CCC3)c2)cn1` [Example 48, N-(4-((6-(3-pivaloylureido)pyridin-3-yl)oxy)pyridin-2-yl)azetidine-1-carboxamide], the pIC50 was greater than 8.00 in assay [1]; 6.00 to 7.00 in assay [2]; 7.00 to 8.00 in assay [3]; greater than 8.00 with M-NFS-60 cells; greater than 8.00 in the assay with osteoclast precursors; greater than 8.00 in assay [4].

On to `Cc1nc(NC(=O)NC(=O)C(C)(C)C)ccc1Oc1ccnc(NC(=O)C(C)C)c1` [Example 13, N-((5-((2-isobutyramidopyridin-4-yl)oxy)-6-methylpyridin-2-yl)carbamoyl)pivalamide], for which the pIC50 is greater than 8.00 in assay [1]; less than 6.00 in assay [2]; 6.00 to 7.00 in assay [3]; greater than 8.00 in the assay on M-NFS-60 cells; 7.00 to 8.00 in the assay on osteoclast precursors; greater than 8.00 in assay [4].

On to `CC(=O)Nc1cc(Oc2ccc(NC(=O)NC(=O)C3(C(F)(F)F)CCC3)nc2)ccn1` [Example 25, N-((5-((2-acetamidopyridin-4-yl)oxy)pyridin-2-yl)carbamoyl)-1-(trifluoromethyl)cyclobutanecarboxamide], for which the pIC50 in assay [1] is 7.00 to 8.00; in assay [2], less than 6.00; in assay [3], 6.00 to 7.00; with M-NFS-60 cells, 7.00 to 8.00; in the assay with osteoclast precursors, greater than 8.00; in assay [4], greater than 8.00.
